# Results: US20170067909A1, “ASSAY-READY RECOMBINANT CELLS TRANSIENTLY OVEREXPRESSING GENES ENCODING DRUG TRANSPORTER PROTEINS AND/OR DRUG METABOLIZING ENZYMES” (Corning Incorporated, priority 2012, published 2017)
# Positions count from the first letter of the chain named.
# How the values were obtained:
# [1] = target: T1, Organic Anion-Transporting Polypeptide 1B1 (Homo sapiens, UniProt Q9Y6L6); assay: Suspension assay, vacuum manifold, Corning TransportoCells OATP1B1*1a; assay type: in vitro ADME; details: 5× substrate solution containing 25 μM, 10 minutes at 37° C., 600 k cells/well
# T1 construct: host or cells: HEK293 cells, gene delivered by electroporation
# T1 sequence (Q9Y6L6 1-691): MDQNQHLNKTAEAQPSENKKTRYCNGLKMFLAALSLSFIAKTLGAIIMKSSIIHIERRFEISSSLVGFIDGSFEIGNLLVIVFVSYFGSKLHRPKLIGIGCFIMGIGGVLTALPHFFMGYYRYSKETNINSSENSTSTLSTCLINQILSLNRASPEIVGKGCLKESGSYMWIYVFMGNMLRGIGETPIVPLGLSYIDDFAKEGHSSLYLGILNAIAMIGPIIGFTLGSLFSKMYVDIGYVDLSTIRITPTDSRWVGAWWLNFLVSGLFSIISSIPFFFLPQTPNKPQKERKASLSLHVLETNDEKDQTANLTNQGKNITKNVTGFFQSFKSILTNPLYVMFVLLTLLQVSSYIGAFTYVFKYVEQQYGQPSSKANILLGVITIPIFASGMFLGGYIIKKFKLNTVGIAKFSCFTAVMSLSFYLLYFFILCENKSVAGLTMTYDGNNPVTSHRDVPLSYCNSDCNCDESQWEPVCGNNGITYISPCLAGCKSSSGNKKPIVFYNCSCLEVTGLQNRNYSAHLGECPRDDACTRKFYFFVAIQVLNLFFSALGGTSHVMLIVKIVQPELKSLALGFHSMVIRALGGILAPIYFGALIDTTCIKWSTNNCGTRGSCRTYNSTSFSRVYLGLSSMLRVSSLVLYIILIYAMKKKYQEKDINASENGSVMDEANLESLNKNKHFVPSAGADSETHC
# Source text: In this experiment, a suspension assay for characterizing the activity of a drug transporter protein in cryopreserved, Corning® TransportoCells™ was developed. More specifically, the use of a centrifugation method versus a vacuum manifold for separating unreacted substrate in characterizing the activity of Organic Anion-Transporting Polypeptide 1B1 was investigated. Corning® TransportoCells™ transiently transfected with the gene OATP1B1*1a were obtained from Corning Life Sciences (Cat. No. 354859). In the Corning® TransportoCells™, the gene OATP1B1*1a was delivered into HEK293 cells via electroporation and the HEK293 cells were recovered and cryopreserved 1 hour post-electroporation. In order to obtain suitable expression of the Organic Anion-Transporting Polypeptide 1B1 encoded by OATP1B1*1a, the Corning® TransportoCells™ were thawed, cultured, and harvested.
# The cells were cultured in T-175 Vented-Cap Culture Flasks with Poly-D-Lysine (hereinafter, “PDL”; available from Corning Life Sciences, Cat. No. 354539) with plating medium for 48 hours at 37° C. and 8% CO2. The plating medium is detailed in Table 16. After 24 hours, sodium butyrate (obtained from Sigma) was added to the cells to reach final 5 mM. After 48 hours, the cells were rinsed twice with Phosphate-Buffered Saline (hereinafter, “PBS”, obtained from Corning).
# The cells were then harvested with 0.05% Trypsin (obtained from Sigma) and washed once with Hank's Balanced Salt Solution (hereinafter, “HBSS”) buffer (with Ca^2+ and Mg^2+, obtained from Corning). Then, the cells were resuspended in HBSS (obtained from Corning) to a final cell density of 3×10^6 cells/ml. […]
# Then, the cells were transferred to FiltrEX™ 96 Well Filter Plates with 0.66 mm Thick Glass Fiber Filter (available from Corning Life Sciences, Cat. No. 3511) and a vacuum was applied. […] The cell lysis was then subjected to the appropriate protein analysis and/or fluorescence analysis to characterize the activity of Organic Anion-Transporting Polypeptide 1B1.
# OATP1B1*15 = target: T2, OATP1B1*15 (Homo sapiens, UniProt Q9Y6L6, N130D/V174A); assay: OATP1B1 single nucleotide polymorphism panel uptake assay, OATP1B1*15 HEK-293 cells
# T2 sequence (Q9Y6L6 1-691 N130D/V174A): T1 sequence (Q9Y6L6 1-691) with N130D, V174A
Compound,Uptake Activity OATP1B1 [1] [pmol/mg/min],uptake activity / transport compared to OATP1B1*1a cells (in words) (OATP1B1*15),Uptake Ratio [1]
C[C@]12CC[C@@H]3c4ccc(O)cc4CC[C@H]3[C@@H]1CC[C@@H]2O[C@@H]1O[C@H](C(=O)O)[C@@H](O)[C@H](O)[C@H]1O [E17βG],2.19,Significantly impaired transport,–
fluorescein methotrexate [FMTX],0.46,Significantly impaired transport,6.8
